Test results taken from patent US20250332178A1, “METHODS OF TREATING MYCOBACTERIAL INFECTIONS USING TETRACYCLINE COMPOUNDS” (priority 2018, published 2025).
Converted amounts (≈) assume the structure as drawn. Read-outs that look alike come from different tables or passages of the source.

Assays:
M. immunogenum group = assay: MIC (CLSI broth dilution), RGM isolates; type: cell-based; settings: M. immunogenum, read-out: MIC
M. smegmatis group = assay: MIC (CLSI broth dilution), RGM isolates; type: cell-based; settings: Mycolicibacterium smegmatis, read-out: MIC
M. abscessus complex = assay: MIC (CLSI broth dilution), RGM isolates; type: cell-based; settings: Mycobacteroides abscessus, read-out: MIC
M. fortuitum group = assay: MIC (CLSI broth dilution), RGM isolates; type: cell-based; settings: Mycolicibacterium fortuitum, read-out: MIC
M. mucogenium group = assay: MIC (CLSI broth dilution), RGM isolates; type: cell-based; settings: read-out: MIC
M. chelonae = assay: MIC (CLSI broth dilution), RGM isolates; type: cell-based; settings: Mycobacteroides chelonae, read-out: MIC
[1] = system: rapid-growing mycobacteria (RGM) isolates; assay: MIC (CLSI broth dilution), all RGM isolates; type: cell-based, nontuberculous mycobacteria; settings: all 50 RGM isolates
M. arupense = assay: MIC (CLSI broth dilution), slow-growing NTM isolates; type: cell-based; settings: isolate 11, Other; read-out: MIC
M. simiae = assay: as above; type: cell-based; settings: read-out: MIC

Compound: CO[C@@]1(NC(=O)Cc2cccs2)C(=O)N2C(C(=O)O)=C(COC(N)=O)CS[C@@H]21 [FOX, cefoxitin]
- MIC (M. immunogenum group; isolate 35, M. immunogenum group): > 64 µg/mL
- MIC (M. immunogenum group; isolate 36, M. immunogenum group): > 64 µg/mL
- MIC (M. immunogenum group; isolate 37, M. immunogenum group): > 64 µg/mL
- MIC (M. immunogenum group; isolate 38, M. immunogenum group): > 64 µg/mL
- MIC (M. smegmatis group; isolate 49, M. smegmatis group, M. goodii): > 64 µg/mL
- MIC (M. smegmatis group; isolate 50, M. smegmatis group, M. wolinskyi): 64 µg/mL (≈ 150 µM)
- MIC (M. abscessus complex; isolate 1, M. abscessus complex, erm gene type MAB30): 32 µg/mL (≈ 74.9 µM)
- MIC (M. abscessus complex; isolate 2, M. abscessus complex, erm gene type MAB30): 32 µg/mL (≈ 74.9 µM)
- MIC (M. abscessus complex; isolate 3, M. abscessus complex, erm gene type MAB30): 32 µg/mL (≈ 74.9 µM)
- MIC (M. abscessus complex; isolate 4, M. abscessus complex, erm gene type massiliense): 32 µg/mL (≈ 74.9 µM)
- MIC (M. abscessus complex; isolate 5, M. abscessus complex, erm gene type massiliense/subsp. abs hybrid): 32 µg/mL (≈ 74.9 µM)
- MIC (M. abscessus complex; isolate 6, M. abscessus complex, erm gene type Type 1 abscessus): 32 µg/mL (≈ 74.9 µM)
- MIC (M. abscessus complex; isolate 7, M. abscessus complex, erm gene type Type 1 abscessus): 32 µg/mL (≈ 74.9 µM)
- MIC (M. abscessus complex; isolate 8, M. abscessus complex, erm gene type Type 1 abscessus): 32 µg/mL (≈ 74.9 µM)
- MIC (M. abscessus complex; isolate 9, M. abscessus complex, erm gene type Type 1 abscessus): 32 µg/mL (≈ 74.9 µM)
- MIC (M. abscessus complex; isolate 10, M. abscessus complex, erm gene type Type 1 abscessus): 32 µg/mL (≈ 74.9 µM)
- MIC (M. abscessus complex; isolate 11, M. abscessus complex, erm gene type Type 6 abscessus): 32 µg/mL (≈ 74.9 µM)
- MIC (M. abscessus complex; isolate 12, M. abscessus complex, erm gene type Type 6 abscessus): 32 µg/mL (≈ 74.9 µM)
- MIC (M. abscessus complex; isolate 13, M. abscessus complex, erm gene type Type 6 abscessus): 32 µg/mL (≈ 74.9 µM)
- MIC (M. abscessus complex; isolate 14, M. abscessus complex, erm gene type Type 6 abscessus): 64 µg/mL (≈ 150 µM)
- MIC (M. abscessus complex; isolate 15, M. abscessus complex, erm gene type Type 7 abscessus): 32 µg/mL (≈ 74.9 µM)
- MIC (M. abscessus complex; isolate 16, M. abscessus complex, erm gene type Type 7 abscessus): 32 µg/mL (≈ 74.9 µM)
- MIC (M. abscessus complex; isolate 17, M. abscessus complex, erm gene type Type 8 abscessus): 32 µg/mL (≈ 74.9 µM)
- MIC (M. fortuitum group; isolate 23, M. fortuitum group, M. fortuitum): 32 µg/mL (≈ 74.9 µM)
- MIC (M. fortuitum group; isolate 24, M. fortuitum group, M. fortuitum): > 64 µg/mL
- MIC (M. fortuitum group; isolate 25, M. fortuitum group, M. fortuitum): 32 µg/mL (≈ 74.9 µM)
- MIC (M. fortuitum group; isolate 26, M. fortuitum group, M. porcinum): 32 µg/mL (≈ 74.9 µM)
- MIC (M. fortuitum group; isolate 27, M. fortuitum group, M. porcinum): 32 µg/mL (≈ 74.9 µM)
- MIC (M. fortuitum group; isolate 28, M. fortuitum group, M. porcinum/M. boenickei): 32 µg/mL (≈ 74.9 µM)
- MIC (M. fortuitum group; isolate 29, M. fortuitum group, M. porcinum/M. boenickei): 32 µg/mL (≈ 74.9 µM)
- MIC (M. fortuitum group; isolate 30, M. fortuitum group, M. porcinum/M. boenickei): ≤ 16 µg/mL
- MIC (M. fortuitum group; isolate 31, M. fortuitum group, M. senegalense): 32 µg/mL (≈ 74.9 µM)
- MIC (M. fortuitum group; isolate 32, M. fortuitum group, M. senegalense): 32 µg/mL (≈ 74.9 µM)
- MIC (M. fortuitum group; isolate 33, M. fortuitum group, M. senegalense): < 16 µg/mL
- MIC (M. fortuitum group; isolate 34, M. fortuitum group, M. senegalense): 32 µg/mL (≈ 74.9 µM)
- MIC (M. mucogenium group; isolate 39, M. mucogenicum group, M. mucogenicum): ≤ 16 µg/mL
- MIC (M. mucogenium group; isolate 40, M. mucogenicum group, M. mucogenicum): ≤ 16 µg/mL
- MIC (M. mucogenium group; isolate 41, M. mucogenicum group, M. mucogenicum): ≤ 16 µg/mL
- MIC (M. mucogenium group; isolate 42, M. mucogenicum group, M. mucogenicum): ≤ 16 µg/mL
- MIC (M. mucogenium group; isolate 43, M. mucogenicum group, M. phocaicum): ≤ 16 µg/mL
- MIC (M. mucogenium group; isolate 44, M. mucogenicum group, M. phocaicum): ≤ 16 µg/mL
- MIC (M. mucogenium group; isolate 45, M. mucogenicum group, M. phocaicum): ≤ 16 µg/mL
- MIC (M. mucogenium group; isolate 46, M. mucogenicum group, M. phocaicum): ≤ 16 µg/mL
- MIC (M. mucogenium group; isolate 47, M. mucogenicum group, M. phocaicum): ≤ 16 µg/mL
- MIC (M. mucogenium group; isolate 48, M. mucogenicum group, M. phocaicum): ≤ 16 µg/mL
- MIC (M. chelonae; isolate 18, M. chelonae): > 64 µg/mL
- MIC (M. chelonae; isolate 19, M. chelonae): > 64 µg/mL
- MIC (M. chelonae; isolate 20, M. chelonae): > 64 µg/mL
- MIC (M. chelonae; isolate 21, M. chelonae): > 64 µg/mL
- MIC (M. chelonae; isolate 22, M. chelonae): > 64 µg/mL
- MIC50 ([1]; read-out: MIC50): 32 µg/mL (≈ 74.9 µM)
- MIC90 ([1]; read-out: MIC90): > 64 µg/mL

Compound: CO[C@H]1/C=C/O[C@@]2(C)Oc3c(C)c(O)c4c(c3C2=O)C2=NC3(CCN(CC(C)C)CC3)NC2=C(NC(=O)/C(C)=C\C=C\[C@H](C)[C@H](O)[C@@H](C)[C@@H](O)[C@@H](C)[C@H](OC(C)=O)[C@@H]1C)C4=O [RFB, rifabutin]
- MIC (M. arupense): ≤ 0.25 µg/mL
- MIC (M. simiae; isolate 13, Other): ≤ 0.25 µg/mL
- MIC (M. simiae; isolate 14, Other): > 2 µg/mL
- MIC (M. simiae; isolate 15, Other): > 2 µg/mL
